{
  "source": "patent US6677310B1",
  "about": "“Ring-expanded nucleosides and nucleotides” (Nabi, priority 1999, dated 2004)",
  "format_in_all_cases": "cell-based, human",
  "key": {"T-47D": {"test_system": "T-47D", "test": "SRB anti-cancer assay, Breast Cancer", "details": "T-47D (Breast Cancer), 48 h"}, "K-562": {"test_system": "K-562", "test": "SRB anti-cancer assay, Leukemia", "details": "K-562 (Leukemia), 48 h"}, "SK-MEL-2": {"test_system": "SK-MEL-2", "test": "SRB anti-cancer assay, Melanoma", "details": "SK-MEL-2 (Melanoma), 48 h"}, "HCT-15": {"test_system": "HCT-15", "test": "SRB anti-cancer assay, Colon Cancer", "details": "HCT-15 (Colon Cancer), 48 h"}, "EKVX": {"test_system": "EKVX", "details": "EKVX (Non-Small Cell Lung Cancer), 48 h"}, "786-0": {"test_system": "786-0", "test": "SRB anti-cancer assay, Renal Cancer", "details": "786-0 (Renal Cancer), 48 h"}, "ACHN": {"test_system": "ACHN", "test": "SRB anti-cancer assay, Renal Cancer", "details": "48 h"}, "HS 578T": {"test_system": "HS 578T", "test": "SRB anti-cancer assay, Breast Cancer", "details": "HS 578T (Breast Cancer), 48 h"}, "SK-MEL-5": {"test_system": "SK-MEL-5", "test": "SRB anti-cancer assay, Melanoma", "details": "SK-MEL-5 (Melanoma), 48 h"}, "RPMI-8226": {"test_system": "RPMI-8226", "test": "SRB anti-cancer assay, Leukemia", "details": "RPMI-8226 (Leukemia), 48 h"}, "TK-10": {"test_system": "TK-10", "test": "SRB anti-cancer assay, Renal Cancer", "details": "TK-10 (Renal Cancer), 48 h"}, "M14": {"test_system": "M14", "test": "SRB anti-cancer assay, Melanoma", "details": "48 h"}, "MDA-MB- 231/ATCC": {"test_system": "MDA-MB- 231/ATCC", "test": "SRB anti-cancer assay, Breast Cancer", "details": "MDA-MB- 231/ATCC (Breast Cancer), 48 h"}, "UACC-257": {"test_system": "UACC-257", "test": "SRB anti-cancer assay, Melanoma", "details": "UACC-257 (Melanoma), 48 h"}, "LOX IMVI": {"test_system": "LOX IMVI", "test": "SRB anti-cancer assay, Melanoma", "details": "48 h"}, "HCT-116": {"test_system": "HCT-116", "test": "SRB anti-cancer assay, Colon Cancer", "details": "HCT-116 (Colon Cancer), 48 h"}, "A498": {"test_system": "A498", "test": "SRB anti-cancer assay, Renal Cancer", "details": "48 h"}, "SR": {"test_system": "SR", "test": "SRB anti-cancer assay, Leukemia", "details": "48 h"}, "[1]": {"details": "read-out: LC50 (the source's name)"}},
  "data": [
    {"smiles": "N=c1nc(N)c2ncn([C@@H]3O[C@H](COC(=O)c4ccccc4)[C@@H](OC(=O)c4ccccc4)[C@H]3OC(=O)c3ccccc3)c2c(N)n1", "note": "[4,8-Diamino-6H-6-imino-1(2′,3′,5′-tri-O-benzoyl-β-D-ribofuranosyl)imidazo[4,5-e][1,3]diazepine]", "values": [
      {"measurement": "GI50", "setting": "T-47D", "value": 5.14, "unit": "µM"},
      {"measurement": "TGI", "setting": "T-47D", "value": 18.9, "unit": "µM"},
      {"measurement": "CC50", "setting": "T-47D; [1]", "value": 48.8, "unit": "µM"},
      {"measurement": "GI50", "setting": "K-562", "value": 2.74, "unit": "µM"},
      {"measurement": "TGI", "setting": "K-562", "value": ">100", "unit": "µM"},
      {"measurement": "CC50", "setting": "K-562; [1]", "value": "> 100", "unit": "µM"},
      {"measurement": "GI50", "setting": "SK-MEL-2", "value": 2.6, "unit": "µM"},
      {"measurement": "LC50", "setting": "SK-MEL-2", "value": 26.2, "unit": "µM"},
      {"measurement": "TGI", "setting": "SK-MEL-2", "value": 6.87, "unit": "µM"},
      {"measurement": "GI50", "setting": "HCT-15", "value": 5.77, "unit": "µM"},
      {"measurement": "TGI", "setting": "HCT-15", "value": 19.5, "unit": "µM"},
      {"measurement": "CC50", "setting": "HCT-15; [1]", "value": 50.8, "unit": "µM"},
      {"measurement": "GI50", "setting": "EKVX", "value": 10.9, "unit": "µM"},
      {"measurement": "TGI", "setting": "EKVX", "value": 29.6, "unit": "µM"},
      {"measurement": "CC50", "setting": "EKVX; [1]", "value": 80.4, "unit": "µM"},
      {"measurement": "GI50", "setting": "786-0", "value": 15.5, "unit": "µM"},
      {"measurement": "TGI", "setting": "786-0", "value": 35.6, "unit": "µM"},
      {"measurement": "CC50", "setting": "786-0; [1]", "value": 81.5, "unit": "µM"},
      {"measurement": "GI50", "setting": "ACHN", "value": 10.9, "unit": "µM"},
      {"measurement": "TGI", "setting": "ACHN", "value": 23.5, "unit": "µM"},
      {"measurement": "CC50", "setting": "ACHN; [1]", "value": 50.7, "unit": "µM"},
      {"measurement": "GI50", "setting": "HS 578T", "value": 15.8, "unit": "µM"},
      {"measurement": "TGI", "setting": "HS 578T", "value": 40.1, "unit": "µM"},
      {"measurement": "CC50", "setting": "HS 578T; [1]", "value": "> 100", "unit": "µM"},
      {"measurement": "GI50", "setting": "SK-MEL-5", "value": 1.36, "unit": "µM"},
      {"measurement": "TGI", "setting": "SK-MEL-5", "value": 2.64, "unit": "µM"},
      {"measurement": "CC50", "setting": "SK-MEL-5; [1]", "value": 5.16, "unit": "µM"},
      {"measurement": "GI50", "setting": "RPMI-8226", "value": 2.53, "unit": "µM"},
      {"measurement": "TGI", "setting": "RPMI-8226", "value": 7.42, "unit": "µM"},
      {"measurement": "CC50", "setting": "RPMI-8226; [1]", "value": "> 100", "unit": "µM"},
      {"measurement": "GI50", "setting": "TK-10", "value": 21.3, "unit": "µM"},
      {"measurement": "TGI", "setting": "TK-10", "value": 82.2, "unit": "µM"},
      {"measurement": "CC50", "setting": "TK-10; [1]", "value": "> 100", "unit": "µM"},
      {"measurement": "GI50", "setting": "M14", "value": 1.91, "unit": "µM"},
      {"measurement": "TGI", "setting": "M14", "value": 3.54, "unit": "µM"},
      {"measurement": "CC50", "setting": "M14; [1]", "value": 6.54, "unit": "µM"},
      {"measurement": "GI50", "setting": "MDA-MB- 231/ATCC", "value": 5, "unit": "µM"},
      {"measurement": "TGI", "setting": "MDA-MB- 231/ATCC", "value": 22, "unit": "µM"},
      {"measurement": "CC50", "setting": "MDA-MB- 231/ATCC; [1]", "value": 61.6, "unit": "µM"},
      {"measurement": "GI50", "setting": "UACC-257", "value": 4.51, "unit": "µM"},
      {"measurement": "TGI", "setting": "UACC-257", "value": 18.3, "unit": "µM"},
      {"measurement": "CC50", "setting": "UACC-257; [1]", "value": 73.5, "unit": "µM"},
      {"measurement": "GI50", "setting": "LOX IMVI", "value": 3.01, "unit": "µM"},
      {"measurement": "TGI", "setting": "LOX IMVI", "value": ">100", "unit": "µM"},
      {"measurement": "CC50", "setting": "LOX IMVI; [1]", "value": "> 100", "unit": "µM"},
      {"measurement": "GI50", "setting": "HCT-116", "value": 3.76, "unit": "µM"},
      {"measurement": "TGI", "setting": "HCT-116", "value": 21.2, "unit": "µM"},
      {"measurement": "CC50", "setting": "HCT-116; [1]", "value": 87.5, "unit": "µM"},
      {"measurement": "GI50", "setting": "A498", "value": 20, "unit": "µM"},
      {"measurement": "TGI", "setting": "A498", "value": 37.8, "unit": "µM"},
      {"measurement": "CC50", "setting": "A498; [1]", "value": 71.8, "unit": "µM"},
      {"measurement": "GI50", "setting": "SR", "value": 4.27, "unit": "µM"},
      {"measurement": "LC50 (concentration killing 50% of cells)", "setting": "SR", "value": "> 100", "unit": "µM"},
      {"measurement": "TGI", "setting": "SR", "value": ">100", "unit": "µM"}
    ]}
  ]
}
